Reference: ChEMBL document CHEMBL1201862, “PubChem BioAssay data set” (2004)
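Where inhibition never reached the appropriate level, the endpoint shown equals the highest concentration tested. Otherwise, values were interpolated linearly from a five-concentration, 48-hour dose response in 96-well plates. At the GI50, growth is halved.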 The source made the active and inactive calls. No stated cut-off is given here; in the data, active = GI50 up to about 1.1 µM and inactive = higher.

Key:
Assay in all cases: growth of human tumour cells (NCI), 48 h
[1] = test system: 786-0
[2] = test system: A498
[3] = test system: A549
[4] = test system: ACHN
[5] = test system: CAKI-1
[6] = test system: CCRF-CEM
[7] = test system: COLO 205
[8] = test system: DLD-1
[9] = test system: DMS-114
[10] = test system: EKVX
[11] = test system: HCT-116
[12] = test system: HCT-15
[13] = test system: HL-60
[14] = test system: HOP-18
[15] = test system: HOP-62
[16] = test system: HOP-92
[17] = test system: HT-29
[18] = test system: IGROV-1
[19] = test system: K562
[20] = test system: KM-20L2
[21] = test system: KM12
[22] = test system: LOX IMVI
[23] = test system: M14
[24] = test system: MOLT-4
[25] = test system: Malme-3M
[26] = test system: NCI-H226
[27] = test system: NCI-H23
[28] = test system: NCI-H460
[29] = test system: NCI-H522
[30] = test system: OVCAR-3
[31] = test system: OVCAR-4
[32] = test system: OVCAR-5
[33] = test system: OVCAR-8
[34] = test system: RXF 393
[35] = test system: SF-268
[36] = test system: SF-295
[37] = test system: SF-539
[38] = test system: SK-MEL-28
[39] = test system: SK-MEL-5
[40] = test system: SK-OV-3
[41] = test system: SN12C
[42] = test system: SNB-19
[43] = test system: SNB-75
[44] = test system: SNB-78
[45] = test system: SR
[46] = test system: SW-620
[47] = test system: TK-10
[48] = test system: U-251
[49] = test system: UACC-257
[50] = test system: UACC-62
[51] = test system: DMS-273
[52] = test system: LXFL 529
[53] = test system: M19-MEL
[54] = test system: RPMI-8226
[55] = test system: SK-MEL-2
[56] = test system: UO-31
[57] = test system: HCC 2998
[58] = test system: XF498

Measured: GI50

CN1NC2(CCCCC2)ON=C1c1ccccc1
inactive: [1] > 100 µM | [2] > 100 µM | [3] > 100 µM | [4] > 100 µM | [5] > 100 µM | [6] > 100 µM | [7] > 100 µM | [8] > 100 µM | [9] > 100 µM | [10] > 100 µM | [11] > 100 µM | [13] > 100 µM | [14] > 100 µM | [15] > 100 µM | [16] > 100 µM | [17] > 100 µM | [18] > 100 µM | [19] > 100 µM | [20] > 100 µM | [21] > 100 µM | [22] > 100 µM | [23] > 100 µM | [24] > 100 µM | [25] > 100 µM | [26] > 100 µM | [27] > 100 µM | [28] > 100 µM | [29] > 100 µM | [30] > 100 µM | [31] > 100 µM | [32] > 100 µM | [33] > 100 µM | [34] > 100 µM | [35] > 100 µM | [36] > 100 µM | [37] > 100 µM | [38] > 100 µM | [39] > 100 µM | [40] > 100 µM | [41] > 100 µM | [42] > 100 µM | [43] > 100 µM | [44] > 100 µM | [45] > 100 µM | [46] > 100 µM | [47] > 100 µM | [48] > 100 µM | [49] > 100 µM | [50] > 100 µM
> 100 µM: [12]

O=C(c1ccc(Cl)cc1)N(C(=S)N1CCN(c2ccccn2)CC1)c1ccccc1
inactive: [1] > 100 µM | [3] 94.2 µM | [4] > 100 µM | [5] > 100 µM | [6] > 100 µM | [7] > 100 µM | [8] > 100 µM | [9] 42.5 µM | [51] 78.3 µM | [11] 97.5 µM | [13] 32.7 µM | [14] > 100 µM | [15] > 100 µM | [16] > 100 µM | [17] > 100 µM | [18] > 100 µM | [19] 41.7 µM | [20] > 100 µM | [21] > 100 µM | [22] > 100 µM | [52] 55.2 µM | [23] > 100 µM | [53] > 100 µM | [24] 43.6 µM | [25] > 100 µM | [26] 24.9 µM | [27] > 100 µM | [28] > 100 µM | [29] > 100 µM | [30] 66.4 µM | [31] > 100 µM | [32] > 100 µM | [33] > 100 µM | [54] 82.4 µM | [34] 15.6 µM | [35] > 100 µM | [36] 99.3 µM | [37] > 100 µM | [38] > 100 µM | [55] > 100 µM | [39] 39.6 µM | [40] > 100 µM | [41] > 100 µM | [42] > 100 µM | [43] > 100 µM | [44] > 100 µM | [45] 39.3 µM | [46] > 100 µM | [47] > 100 µM | [48] > 100 µM | [49] > 100 µM | [50] > 100 µM | [56] 68.9 µM
> 100 µM: [12]

CN(C)P(=O)(/C(N)=N/Nc1ccc([N+](=O)[O-])cc1)N(C)C
active: [2] 0.558 µM
> 100 µM: [12]
inactive: [1] > 100 µM | [3] > 100 µM | [4] > 100 µM | [5] > 100 µM | [6] > 100 µM | [7] > 100 µM | [8] > 100 µM | [9] 61.7 µM | [51] > 100 µM | [10] > 100 µM | [57] > 100 µM | [11] > 100 µM | [13] > 100 µM | [15] > 100 µM | [16] 41.4 µM | [19] > 100 µM | [20] > 100 µM | [21] > 100 µM | [22] > 100 µM | [52] > 100 µM | [23] > 100 µM | [53] > 100 µM | [24] > 100 µM | [25] > 100 µM | [26] > 100 µM | [27] 62.4 µM | [28] > 100 µM | [29] 48 µM | [30] > 100 µM | [31] 85.1 µM | [32] > 100 µM | [33] > 100 µM | [54] > 100 µM | [35] > 100 µM | [37] > 100 µM | [38] > 100 µM | [55] > 100 µM | [39] > 100 µM | [41] > 100 µM | [42] > 100 µM | [43] > 100 µM | [44] > 100 µM | [45] > 100 µM | [46] > 100 µM | [47] > 100 µM | [48] > 100 µM | [49] > 100 µM | [50] > 100 µM | [56] > 100 µM | [58] > 100 µM
